Laboratory results from patent US20220323410A1, “OXYTOCIN ANTAGONIST DOSING REGIMENS FOR PROMOTING EMBRYO IMPLANTATION AND PREVENTING MISCARRIAGE” (ObsEva S.A., priority 2019, published 2022).

Columns and labels:
[1] = crystal form with XRPD peaks of Table 1; cited from earlier work
CYP2D6 = CYP2D6 (Homo sapiens, UniProt P10635); experiment: Metabolism by CYP2D6 isoform; format: in vitro ADME; conditions: substantially pure (3E) diastereomer; also CYP2C19
Method: (§1) At five time points over the course of a 45 minute experiment, the compounds were analyzed by LC-MS/MS. The percentage of each compound remaining at each time point, along with the metabolic half-lives of each compound in the presence of each cytochrome P450 isoform, are indicated in Tables 10-12, below.

[2] = Phase 2 clinical study of Example 1: serum level of compound (II) at embryo transfer; format: in vivo; conditions: female, human, mean
Text: (§2) A total of 247 female subjects were selected for treatment based on a variety of inclusion criteria. Of these, 244 subjects completed the study. The study was open to healthy female volunteers from 18 to 36 years of age that had previously undergone up to one IVF or ICSI cycle that resulting in a negative pregnancy test as assessed by hCG detection, despite the transfer of at least one embryo of good quality, which was defined as an embryo having from six to eight blastomeres of uniform size and shape on the day of embryo transfer, ooplasm having no granularity, absence of multinucleation, and a maximum fragmentation of 10%. Subjects included in the study had at least one functional ovary and were capable of communicating with the investigator and research staff and complying with the requirements of the study protocol. Data are presented in the form of mean (standard deviation).
Subjects included in the study underwent an initial screening period beginning up to 12 weeks prior to the day of oocyte retrieval from the subject. During this 12-week period, subjects underwent physical and gynecological examination in preparation for oocyte retrieval. This analysis included a recordation of the subjects' vital signs, hematology and biochemistry analysis of blood samples withdrawn from the subjects, urinary analysis, and a comprehensive review of the subjects' medical histories.
At the conclusion of the screening period, subjects underwent controlled ovarian hyperstimulation by administration of a GnRH antagonist so as to prevent a premature rise in serum LH concentration. Concurrent pre-treatment with an oral contraceptive prior to controlled ovarian hyperstimulation was allowed, but not required. Final follicular maturation was performed with a single administration of hCG to the subject. […]
(§3) The embryo transfer procedure was conducted three days after the oocyte retrieval day (OPU+3 days). Subjects undergoing embryo transfer were monitored prior to initiating the procedure. […]

[3] = tested on: female human subjects undergoing embryo transfer therapy; experiment: Clinical studies of embryo implantation in subjects undergoing embryo transfer therapy (Example 1); format: in vivo
Text: as §2
Subjects included in the study underwent an initial screening period beginning up to 12 weeks prior to the day of oocyte retrieval from the subject. During this 12-week period, subjects underwent physical and gynecological examination in preparation for oocyte retrieval. […]
as §3

[4] = tested on: uterine contractions in human subjects; experiment: Uterine contractility in human subjects (Example 4); conditions: in vivo
Text: Values along the y-axis represent the quantity of uterine contractions (UC) per minute.

[5] = tested on: endometrial blood flow in human subjects; experiment: Endometrial blood flow in human subjects (Example 4); conditions: in vivo
Text: Values along the y-axis represent endometrial flow index (FI), a parameter that is proportional to the volumetric quantity of blood that circulates through the endometrium in a given period of time.
Values along the y-axis represent endometrial vascularity index (VI), a parameter that is proportional to the total quantity of blood vessels in a subject's endometrium.
Values along the y-axis represent vascularity flow index (VFI), a parameter that is proportional to the total quantity of blood that circulates through a given volume of a subject's endometrium.

[6] = tested on: subjects undergoing embryo transfer; experiment: Pregnancy and live birth rates, clinical study in subjects undergoing embryo transfer; format: in vivo, human; conditions: post hoc, pre-dose serum P4 quartiles 1-3; significant dose-dependent fashion (p<0.02)
Method: From one to two embryos of good quality were transferred to each subject. To reduce uterine contractions at the time of embryo transfer, soft or ultra-soft catheters were used and contact with the uterine fundus was avoided. Any difficulties that occurred during the embryo transfer procedure were recorded, including instances in which uterine sounding or cervical dilation were required, instances in which a harder catheter was required, or instances in which blood was found in any part of the catheter.
Approximately 1 hour following embryo transfer, subjects underwent a final physical examination and were subsequently discharged from the clinical unit until the first follow-up visit, which occurred at about 14 days following oocyte retrieval (OPU+14 days). At this time, subjects underwent a physical examination as well as a blood sample analysis to assess pregnancy by detection of hCG. […] Pregnancy status was monitored by detecting embryo heartbeat. […]
Positive blood pregnancy test at 14 days following oocyte retrieval and positive embryo heartbeat at 10 weeks following oocyte retrieval were assessed in the same manner as described above. Change from baseline to the time of embryo transfer in uterine contraction rate was analyzed by the Wilcoxon Rank Sum Test by comparing the uterine contraction rate associated with each dose to that observed with placebo-treated subjects.

CYP3A4 = CYP3A4 (Homo sapiens, UniProt P08684); experiment: Metabolism by CYP3A4 isoform; format: in vitro ADME; conditions: substantially pure compound (II)
Method: as §1

[7] = Concentration of compound (II) after single oral dose in healthy female volunteers; format: in vivo, human; conditions: oral administration of either the 900 mg or the 1,800 mg dose; FIG. 6
Method: (§4) Particularly, subjects were pre-treated with estradiol valerate at a dosage of 2 mg administered 3 times per day (TID) for 16 days. Administration of estradiol valerate was followed by vaginal progesterone at a dosage of 200 mg administered TID.

uterine contractions = experiment: Uterine contractions by ultrasound in healthy female volunteers; format: in vivo, human; conditions: 1,800 mg dose
Method: as §4
(§5) These assessments included measurements of uterine contractions by ultrasound and uterine perfusion by a 3D-power Doppler technique.
(§6) Mean and median changes in uterine contraction frequency and endometrial vascularity indices (particularly, endometrial flow index (FI), vascularity index (VI), and vascularity flow index (VFI)) were calculated. […] Differences in endometrial mRNA expression were identified and assessed for statistical significance.

endometrial perfusion = experiment: Uterine perfusion by 3D-power Doppler in healthy female volunteers; format: in vivo, human; conditions: baseline to 24 hours; both 900 mg and 1,800 mg doses
Method: as §4, §5, §6

[8] = tested on: endometrial RNA transcript expression; experiment: Endometrial RNA transcript expression by RNA-Seq in healthy female volunteers; format: in vivo, human; conditions: 900 mg
Method: as §4, §5, §6
Using an RNA-Seq assay, each subject's expression of a variety of genes, including DPP4, CNTNAP3, CNTN4, CXCL12, TNXB, CTSE, OLFM4, KRT5, KRT6A, and IDO2, was then assessed to determine whether the expression of each gene increased, decreased, or underwent no significant change due to administration of the compound or placebo.

[9] = tested on: spontaneous uterine contractions; conditions: cited from earlier work

Sequence of CYP2D6 (P10635 whole entry, canonical isoform): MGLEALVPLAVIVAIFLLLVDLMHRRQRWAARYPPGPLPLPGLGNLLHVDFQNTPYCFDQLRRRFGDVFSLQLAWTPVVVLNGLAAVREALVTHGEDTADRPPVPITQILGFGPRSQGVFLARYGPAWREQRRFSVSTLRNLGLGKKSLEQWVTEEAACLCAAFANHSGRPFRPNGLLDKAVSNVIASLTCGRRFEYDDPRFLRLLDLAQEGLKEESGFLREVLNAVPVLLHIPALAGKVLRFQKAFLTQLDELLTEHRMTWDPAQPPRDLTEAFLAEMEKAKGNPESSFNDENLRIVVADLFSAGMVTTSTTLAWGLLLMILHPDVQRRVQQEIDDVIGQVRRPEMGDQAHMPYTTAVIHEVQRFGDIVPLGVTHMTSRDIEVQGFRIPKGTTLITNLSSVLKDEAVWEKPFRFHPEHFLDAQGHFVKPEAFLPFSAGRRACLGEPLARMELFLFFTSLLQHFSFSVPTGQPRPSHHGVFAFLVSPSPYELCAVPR
Sequence of CYP3A4 (P08684 whole entry, canonical isoform): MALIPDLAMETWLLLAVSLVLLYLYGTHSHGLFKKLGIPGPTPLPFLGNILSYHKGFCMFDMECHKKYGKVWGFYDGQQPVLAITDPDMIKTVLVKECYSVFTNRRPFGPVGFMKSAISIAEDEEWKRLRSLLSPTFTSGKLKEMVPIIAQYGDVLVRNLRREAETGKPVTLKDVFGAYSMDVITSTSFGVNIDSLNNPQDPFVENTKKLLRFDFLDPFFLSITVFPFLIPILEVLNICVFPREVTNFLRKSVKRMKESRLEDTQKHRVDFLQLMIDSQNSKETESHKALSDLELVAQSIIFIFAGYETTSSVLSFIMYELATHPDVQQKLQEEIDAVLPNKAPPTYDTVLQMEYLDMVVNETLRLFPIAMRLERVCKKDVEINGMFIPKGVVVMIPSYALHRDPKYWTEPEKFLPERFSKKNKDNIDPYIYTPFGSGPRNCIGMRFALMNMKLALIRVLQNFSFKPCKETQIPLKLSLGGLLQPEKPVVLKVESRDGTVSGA

Structure (SMILES): CO/N=C1/C[C@@H](CO)N(C(=O)c2ccc(-c3ccccc3C)cc2)C1 [crystal form of compound (II), (3Z,5S)-5-(hydroxymethyl)-1-[(2′-methyl-1,1′-biphenyl-4-yl)carbonyl]pyrrolidin-3-one O-methyloxime]
- stability to aqueous media and physical stress [1]: enhanced stability to aqueous media and physical stress

Structure (SMILES): CO/N=C1\C[C@@H](CO)N(C(=O)c2ccc(-c3ccccc3C)cc2)C1 [(3E) isomer, (3E,5S)-5-(hydroxymethyl)-1-[(2′-methyl-1,1′-biphenyl-4-yl)carbonyl]pyrrolidin-3-one O-methyloxime]
- Preferential metabolism by cytochrome P450 isoform (CYP2D6): preferentially metabolized by cytochrome P450 isoforms 2D6 (CYP2D6) and 2C19 (CYP2C19)

Structure (SMILES): CO/N=C1/C[C@@H](CO)N(C(=O)c2ccc(-c3ccccc3C)cc2)C1 [compound (II), (3Z,5S)-5-(hydroxymethyl)-1-[(2′-methyl-1,1′-biphenyl-4-yl)carbonyl]pyrrolidin-3-one O-methyloxime]
- concentration at 4 hours ([2]; 100 mg oral dose about 4 hours prior to embryo transfer, n = 62): 484 ng/mL
- concentration at 4 hours ([2]; 300 mg oral dose about 4 hours prior to embryo transfer, n = 60): 1450 ng/mL
- concentration at 4 hours ([2]; 900 mg oral dose about 4 hours prior to embryo transfer, n = 60): 4160 ng/mL
- successful embryo implantation rate ([3]; dose-dependent, particularly strong at pre-treatment serum P4 below 320 nM): improve successful embryo implantation rate
- risk of embryo implantation failure ([3]; human subjects that previously underwent ovarian hyperstimulation and oocyte retrieval): reduce the risk of embryo implantation failure
- uterine contractility [4]: reduce uterine contractility
- flow of blood to the endometrium [5]: augment the flow of blood to the endometrium
- Pregnancy and live-birth rates versus placebo group [6]: overall increase in pregnancy and live-birth rates in the treatment arms versus the placebo group
- Preferential metabolism by cytochrome P450 isoform (CYP3A4): preferentially metabolized by cytochrome P450 isoform 3A4 (CYP3A4)
- Time at which maximum concentration is reached [7]: about 4 hours
- Proportion of subjects showing less than one uterine contraction per minute versus placebo (uterine contractions; p=0.0121): significance was seen at the 8-hour time point
- Number of uterine contractions per minute versus placebo (uterine contractions; p=0.0923 at 4 hours, p=0.0081 at 8 hours): contraction-reducing effects were observed from the 4-hour time point onwards
- Endometrial perfusion parameters, median values (endometrial perfusion): marked and sustained increases in median values
- mRNA expression in endometrial biopsy tissue compared to placebo [8]: No differences in mRNA expression
- Reduction in spontaneous uterine contractions ([9]; 10, 30, and 60 mg/kg, anesthetized late-term pregnant rats): dose-dependent reduction in spontaneous uterine contractions
- Inhibitory activity with respect to uterine contraction versus (3E) diastereomer ([9]; same vehicle, same model organism): markedly higher than that of the substantially pure (3E) diastereomer
